Values of other authors in US20140234430A1, “PHARMACEUTICAL METHODS AND TOPICAL COMPOSITIONS CONTAINING ACITRETIN” (DOUGLAS PHARMACEUTICALS LTD., priority 2011, published 2014).

COc1cc(C)c(/C=C/C(C)=C/C=C/C(C)=C/C(=O)O)c(C)c1C [acitretin, (2E,4E,6E,8E)-9-(4-methoxy-2,3,6-trimethylphenyl)-3,7-dimethylnona-2,4,6,8-tetraenoic acid]
Solubility in alcohols (suitable alcohols): quite poorly soluble
Solubility in water (water): very poorly soluble
